Measured values as given in patent publication US20070117770A1, “Human ribosomal DNA (rDNA) and ribosomal RNA (rRNA) nucleic acids and uses thereof” (Cylene Pharmaceuticals, Inc., priority 2005, published 2007).

Legend:
Assay in all cases: Protein kinase inhibition assay
JAK2(h) = JAK2(h) (Homo sapiens, UniProt O60674); assay type: biochemical; conditions: read-out: percent residual activity of JAK2(h)
Method: (§1) Certain compounds were tested for activity in protein kinase inhibition assays. All substrates were dissolved and diluted to working stocks in de-ionized water, apart from histone H1 (10× working stock in 20 mM MOPS pH 7.0), PDKtide (10× working stock in 50 mM Tris pH 7.0) ATF2 (which is typically stored at a 20× working stock in 50 mM Tris pH 7.5, 150 mM NaCl, 0.1 mM EGTA, 0.03% Brij-35, 50% glycerol, 1 mM benzamidine, 0.2 mM PMSF and 0.1% R-mercaptoethanol), KKLNRTLSFAEPG (SEQ ID NO:203) and RRRLSFAEPG (SEQ ID NO:204) (50 mM HEPES pH 7.4) and GGEEEEYFELVKKKK (SEQ ID NO:205) (20 mM MOPS pH 7.0). All kinases were pre-diluted to a 10× working concentration prior to addition into the assay. The composition of the dilution buffer for each kinase is detailed below.
In a final reaction volume of 25 μl, JAK2 (h) (5-10 mU) is incubated with 8 mM MOPS pH 7.0, 0.2 mM EDTA, 100 μM […] (SEQ ID NO:217), 10 mM MgAcetate and [gamma-33P-ATP] (specific activity approx. 500 cpm/pmol, concentration as required). The reaction is initiated by the addition of the MgATP mix. After incubation for 40 minutes at room temperature, the reaction is stopped by the addition of 5 μl of a 3% phosphoric acid solution. 10 μl of the reaction is then spotted onto a P30 filtermat and washed three times for 5 minutes in 75 mM phosphoric acid and once in methanol prior to drying and scintillation counting.

SAPK4(h) = SAPK4(h) (Homo sapiens, UniProt O15264); assay type: biochemical; conditions: read-out: percent residual activity of SAPK4(h)
Chain of SAPK4(h) (O15264 whole entry): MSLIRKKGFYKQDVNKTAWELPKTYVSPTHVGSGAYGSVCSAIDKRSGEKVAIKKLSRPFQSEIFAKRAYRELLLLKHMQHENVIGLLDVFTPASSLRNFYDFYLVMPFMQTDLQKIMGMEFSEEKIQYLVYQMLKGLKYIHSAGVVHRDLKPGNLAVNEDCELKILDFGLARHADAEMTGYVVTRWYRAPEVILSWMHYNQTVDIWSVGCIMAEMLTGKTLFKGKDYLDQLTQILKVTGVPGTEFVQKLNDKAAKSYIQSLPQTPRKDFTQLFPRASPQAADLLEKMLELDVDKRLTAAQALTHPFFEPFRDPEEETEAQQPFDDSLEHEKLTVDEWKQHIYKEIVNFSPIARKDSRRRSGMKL
Method: as §1
In a final reaction volume of 25 μl, SAPK4 (h) (5-10 mU) is incubated with 25 mM Tris pH 7.5, 0.02 mM EGTA, 0.33 mg/ml myelin basic protein, 10 mM MgAcetate and [gamma-33P-ATP] (specific activity approx. 500 cpm/pmol, concentration as required). The reaction is initiated by the addition of the MgATP mix. After incubation for 40 minutes at room temperature, the reaction is stopped by the addition of 5 μl of a 3% phosphoric acid solution. 10 μl of the reaction is then spotted onto a P30 filtermat and washed three times for 5 minutes in 75 mM phosphoric acid and once in methanol prior to drying and scintillation counting.

ZAP-70(h) = ZAP-70(h) (Homo sapiens, UniProt P43403); assay type: biochemical; conditions: read-out: percent residual activity of ZAP-70(h)
Chain of ZAP-70(h) (P43403 whole entry): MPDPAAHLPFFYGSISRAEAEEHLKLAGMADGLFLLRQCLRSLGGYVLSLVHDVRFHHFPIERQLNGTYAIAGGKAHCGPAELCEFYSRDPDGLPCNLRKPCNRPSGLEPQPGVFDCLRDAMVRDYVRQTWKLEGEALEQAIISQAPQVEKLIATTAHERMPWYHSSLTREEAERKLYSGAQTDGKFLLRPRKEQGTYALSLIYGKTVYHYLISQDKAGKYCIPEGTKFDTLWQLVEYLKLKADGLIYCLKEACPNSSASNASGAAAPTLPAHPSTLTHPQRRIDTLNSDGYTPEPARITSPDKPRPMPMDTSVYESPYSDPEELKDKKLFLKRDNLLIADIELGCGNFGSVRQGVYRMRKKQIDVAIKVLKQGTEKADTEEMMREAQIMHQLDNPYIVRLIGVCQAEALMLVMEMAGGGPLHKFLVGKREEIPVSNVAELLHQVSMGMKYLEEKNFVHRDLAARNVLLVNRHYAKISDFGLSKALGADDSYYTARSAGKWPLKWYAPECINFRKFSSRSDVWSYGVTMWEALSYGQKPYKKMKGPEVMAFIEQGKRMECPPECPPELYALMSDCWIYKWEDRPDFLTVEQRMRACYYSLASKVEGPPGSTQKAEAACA
Method: as §1
In a final reaction volume of 25 μl, ZAP-70 (h) (5-10 mU) is incubated with 50 mM Tris pH 7.5, 0.1 mM EGTA, 0.1 mM Na3VO4, 0.1% R-mercaptoethanol, 0.1 mg/ml poly(Glu, Tyr) 4:1, 10 mM MnCl2, 10 mM MgAcetate and [gamma-33P-ATP] (specific activity approx. 500 cpm/pmol, concentration as required). The reaction is initiated by the addition of the MgATP mix. After incubation for 40 minutes at room temperature, the reaction is stopped by the addition of 5 μl of a 3% phosphoric acid solution. […]

p70S6K(h) = assay type: biochemical, human; conditions: 2.5 μM
Method: as §1
In a final reaction volume of 25 μl, p70S6K (h) (5-10 mU) is incubated with 8 mM MOPS pH 7.0, 0.2 mM EDTA, 100 μM KKRNRTLTV (SEQ ID NO:212), 10 mM MgAcetate and [gamma-33P-ATP] (specific activity approx. 500 cpm/pmol, concentration as required). The reaction is initiated by the addition of the MgATP mix. After incubation for 40 minutes at room temperature, the reaction is stopped by the addition of 5 μl of a 3% phosphoric acid solution. 10 μl of the reaction is then spotted onto a P30 filtermat and washed three times for 5 minutes in 75 mM phosphoric acid and once in methanol prior to drying and scintillation counting.

CK2(h) = CK2(h) (Homo sapiens, UniProt P68400); assay type: biochemical; conditions: read-out: percent residual activity of CK2(h)
Chain of CK2(h) (P68400 whole entry): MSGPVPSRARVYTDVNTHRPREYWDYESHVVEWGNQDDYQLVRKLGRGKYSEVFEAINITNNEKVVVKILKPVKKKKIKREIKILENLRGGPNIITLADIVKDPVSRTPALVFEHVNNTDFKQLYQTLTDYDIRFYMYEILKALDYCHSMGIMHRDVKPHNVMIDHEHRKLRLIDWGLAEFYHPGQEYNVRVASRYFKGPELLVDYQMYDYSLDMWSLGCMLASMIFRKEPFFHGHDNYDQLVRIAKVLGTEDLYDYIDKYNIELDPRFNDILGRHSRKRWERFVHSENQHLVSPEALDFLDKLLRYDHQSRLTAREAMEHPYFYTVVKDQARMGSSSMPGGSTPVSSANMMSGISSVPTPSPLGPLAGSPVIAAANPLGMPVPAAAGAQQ
Chain of CK2(h) (P67870 whole entry partner): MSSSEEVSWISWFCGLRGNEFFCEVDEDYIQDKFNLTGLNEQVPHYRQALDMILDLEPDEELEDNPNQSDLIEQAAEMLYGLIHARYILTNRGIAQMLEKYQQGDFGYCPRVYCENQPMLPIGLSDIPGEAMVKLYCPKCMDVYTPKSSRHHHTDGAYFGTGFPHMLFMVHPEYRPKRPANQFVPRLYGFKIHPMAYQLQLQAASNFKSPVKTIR
Method: as §1
In a final reaction volume of 25 μl, CK2 (h) (5-10 mU) is incubated with 20 mM HEPES pH 7.6, 0.15 M NaCl, 0.1 mM EDTA, 5 mM DTT, 0.1% Triton X-100, 165 μM RRRDDDSDDD (SEQ ID NO:215), 10 mM MgAcetate and [gamma-33P-ATP] (specific activity approx. 500 cpm/pmol, concentration as required). The reaction is initiated by the addition of the MgATP mix. After incubation for 40 minutes at room temperature, the reaction is stopped by the addition of 5 μl of a 3% phosphoric acid solution. […]

Bmx(h) = Bmx(h) (Homo sapiens, UniProt P51813); assay type: biochemical; conditions: read-out: percent residual activity of Bmx(h)
Chain of Bmx(h) (P51813 whole entry): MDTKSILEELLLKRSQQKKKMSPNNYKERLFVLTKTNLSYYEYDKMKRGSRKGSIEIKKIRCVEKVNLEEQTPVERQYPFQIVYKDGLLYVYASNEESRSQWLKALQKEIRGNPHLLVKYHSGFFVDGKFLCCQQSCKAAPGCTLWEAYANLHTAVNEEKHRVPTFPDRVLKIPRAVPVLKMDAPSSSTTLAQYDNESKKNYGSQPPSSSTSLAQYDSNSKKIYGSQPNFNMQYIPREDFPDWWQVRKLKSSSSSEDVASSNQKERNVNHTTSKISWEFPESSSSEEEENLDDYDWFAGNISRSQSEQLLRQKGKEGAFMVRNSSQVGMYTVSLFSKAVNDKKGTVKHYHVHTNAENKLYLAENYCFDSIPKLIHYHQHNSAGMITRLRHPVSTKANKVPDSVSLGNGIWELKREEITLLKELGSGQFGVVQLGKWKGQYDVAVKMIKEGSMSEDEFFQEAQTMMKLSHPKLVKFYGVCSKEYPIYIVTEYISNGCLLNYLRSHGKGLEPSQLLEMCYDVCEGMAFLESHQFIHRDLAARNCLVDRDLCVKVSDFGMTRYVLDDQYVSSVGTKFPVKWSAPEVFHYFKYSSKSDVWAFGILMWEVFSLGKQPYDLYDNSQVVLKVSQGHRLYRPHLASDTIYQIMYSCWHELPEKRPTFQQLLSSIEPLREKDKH
Method: as §1
In a final reaction volume of 25 μl, Bmx (h) (5-10 mU) is incubated with 8 mM MOPS pH 7.0, 0.2 mM EDTA, 0.1 mg/ml poly(Glu, Tyr) 4:1, 10 mM MgAcetate and [gamma-33P-ATP] (specific activity approx. 500 cpm/pmol, concentration as required). The reaction is initiated by the addition of the MgATP mix. After incubation for 40 minutes at room temperature, the reaction is stopped by the addition of 5 μl of a 3% phosphoric acid solution. 10 μl of the reaction is then spotted onto a Filtermat A and washed three times for 5 minutes in 75 mM phosphoric acid and once in methanol prior to drying and scintillation counting.

Chain of JAK2(h) (O60674 whole entry): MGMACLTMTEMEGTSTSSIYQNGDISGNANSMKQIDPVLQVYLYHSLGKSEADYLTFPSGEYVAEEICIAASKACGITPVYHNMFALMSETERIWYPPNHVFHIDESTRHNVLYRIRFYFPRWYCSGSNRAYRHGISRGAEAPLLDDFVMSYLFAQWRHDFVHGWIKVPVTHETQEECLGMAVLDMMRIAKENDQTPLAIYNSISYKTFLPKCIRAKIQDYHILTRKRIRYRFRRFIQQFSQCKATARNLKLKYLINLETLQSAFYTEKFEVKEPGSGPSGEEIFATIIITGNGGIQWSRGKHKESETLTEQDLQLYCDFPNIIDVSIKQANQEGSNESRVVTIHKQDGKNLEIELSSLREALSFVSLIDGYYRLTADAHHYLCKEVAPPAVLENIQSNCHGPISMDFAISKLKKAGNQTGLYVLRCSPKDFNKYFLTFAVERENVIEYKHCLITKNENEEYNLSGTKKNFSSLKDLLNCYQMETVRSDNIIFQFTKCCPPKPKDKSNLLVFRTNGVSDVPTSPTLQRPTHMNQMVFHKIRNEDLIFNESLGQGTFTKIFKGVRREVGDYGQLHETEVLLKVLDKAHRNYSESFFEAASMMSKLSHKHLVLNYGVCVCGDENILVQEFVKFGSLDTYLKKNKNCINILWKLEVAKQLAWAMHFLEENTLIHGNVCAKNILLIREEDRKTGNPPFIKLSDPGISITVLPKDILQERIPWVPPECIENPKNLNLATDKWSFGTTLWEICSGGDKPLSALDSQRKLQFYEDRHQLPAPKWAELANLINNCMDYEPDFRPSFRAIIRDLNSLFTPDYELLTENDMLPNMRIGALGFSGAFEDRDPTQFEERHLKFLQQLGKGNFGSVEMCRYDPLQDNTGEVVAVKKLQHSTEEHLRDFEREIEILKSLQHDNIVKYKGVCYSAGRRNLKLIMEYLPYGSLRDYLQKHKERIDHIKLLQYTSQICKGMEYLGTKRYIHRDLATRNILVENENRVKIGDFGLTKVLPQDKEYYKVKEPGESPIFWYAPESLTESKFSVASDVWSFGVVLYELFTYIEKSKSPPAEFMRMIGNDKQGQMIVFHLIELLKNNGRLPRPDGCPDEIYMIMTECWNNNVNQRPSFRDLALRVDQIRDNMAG

remaining activity at 2.5 µM (JAK2(h)) [%] | remaining activity at 2.5 µM (SAPK4(h)) [%] | remaining activity at 2.5 µM (ZAP-70(h)) [%] | percent residual activity of p70S6K(h) (p70S6K(h)) [%] | remaining activity at 2.5 µM (CK2(h)) [%] | remaining activity at 2.5 µM (Bmx(h)) [%] | inhibition of p70S6K (p70S6K(h)) | Compound
116 | 105 | 105 | 97 | 102 | 105 |  | CC(=O)N1CCN(c2ccc3c(=O)c(C(=O)NCCN4CCCC4)c4n(C)c5ccccc5n4c3n2)CC1 [Compound B-1]
105 | 31 | 130 | 18 | 104 | 68 | greater than 80% | CN1CCCC1CCNC(=O)c1cn2c3c(c(N4CCC(c5cnccn5)C4)c(F)cc3c1=O)Oc1cc3ccccc3cc1-2 (stereo not shown) [Compound A-1]
